Results: patent US20140121181A1, “HYDROPHOBIC POLYMER COMPOUND HAVING ANTICOAGULANT EFFECT” (TORY INDUSTRIES, INC., priority 2011, published 2014)

Tested on: citric acid-supplemented blood collected from a volunteer
Assay: Measurement of whole blood coagulation time (Sonoclot, ACT ONSET value)
Parameters: species or system human
Procedure: In a cuvette (Non-activated Clotting Test Kit), 18 μL of physiological saline was placed and 14.8 μL of calcicol was added thereto, followed by further addition of 342 μL of the thus obtained citric acid-supplemented blood. The resulting mixture was measured using a Sonoclot blood coagulation/platelet function analyzer (IMI Co., Ltd.) and the measured ACT ONSET value was defined as the whole blood coagulation time.

## CC1CNc2c(cccc2S(=O)(=O)N[C@@H](CCCNC(=N)N)C(=O)N2CC[C@@H](C)C[C@@H]2C(=O)O)C1 (mixture of isomers) [argatroban, (2R,4R)-4-methyl-1-((2S)-2-{[(3RS)-3-methyl-1,2,3,4-tetrahydroquinolin-8-yl]sulfonyl}amino-5-guanidinopentanoyl)piperidine-2-carboxylic acid]
2 μM test solution/dispersion in place of physiological saline
  whole blood coagulation time: 520 s
10 μM test solution in place of physiological saline
  whole blood coagulation time: 734 s
20 μM test solution in place of physiological saline
  whole blood coagulation time: 893 s
